Results taken from US11897862B2 (Gilead Sciences, Inc., priority 2022, dated 2024).

How the values were obtained:
IKZF1 = molecular target: T1, IKZF1 (Homo sapiens, UniProt Q13422+Q96SW2); test: HEK293 HiBiT in vitro degradation of IKZF1; format: cell-based; conditions: for Dmax: HEK293, HEK293 HiBiT; for Dmax / IKZF1 Dmax: maximum degradation at the highest concentration tested; for DC50 / IKZF1 Dmax: HEK293 HiBiT; for DC50: 18-24 hr incubation, normalized to DMSO control, read-out: IKZF1 EC50
T1 construct: expressed in transfected cells
T1 sequence (Q13422 whole entry): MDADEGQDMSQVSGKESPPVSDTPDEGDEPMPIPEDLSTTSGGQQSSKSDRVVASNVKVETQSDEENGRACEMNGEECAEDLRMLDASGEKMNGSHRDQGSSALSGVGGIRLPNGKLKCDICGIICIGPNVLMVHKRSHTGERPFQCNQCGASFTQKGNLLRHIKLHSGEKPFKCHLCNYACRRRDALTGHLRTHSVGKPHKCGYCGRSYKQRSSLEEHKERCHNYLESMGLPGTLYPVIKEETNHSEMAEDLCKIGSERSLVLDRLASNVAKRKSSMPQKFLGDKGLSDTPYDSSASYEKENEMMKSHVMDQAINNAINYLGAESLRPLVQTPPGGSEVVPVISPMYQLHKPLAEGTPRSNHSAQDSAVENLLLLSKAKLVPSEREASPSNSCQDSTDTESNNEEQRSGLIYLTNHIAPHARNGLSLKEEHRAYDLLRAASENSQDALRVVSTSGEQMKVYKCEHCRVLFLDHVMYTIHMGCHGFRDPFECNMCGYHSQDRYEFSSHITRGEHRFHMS
T1 sequence (Q96SW2 whole entry): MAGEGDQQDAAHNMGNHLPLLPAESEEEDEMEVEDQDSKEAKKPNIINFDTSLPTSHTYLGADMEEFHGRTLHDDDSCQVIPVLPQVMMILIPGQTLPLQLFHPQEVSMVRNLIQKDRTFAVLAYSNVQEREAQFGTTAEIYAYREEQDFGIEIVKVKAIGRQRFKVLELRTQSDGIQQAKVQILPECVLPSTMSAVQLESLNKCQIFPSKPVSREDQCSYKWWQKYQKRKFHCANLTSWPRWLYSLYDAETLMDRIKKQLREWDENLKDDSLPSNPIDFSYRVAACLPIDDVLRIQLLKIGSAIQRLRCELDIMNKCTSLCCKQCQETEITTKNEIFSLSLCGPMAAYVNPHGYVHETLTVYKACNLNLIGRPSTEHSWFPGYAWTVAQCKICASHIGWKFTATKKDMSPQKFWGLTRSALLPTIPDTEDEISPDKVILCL
T1 sequence (Q16531 whole entry partner): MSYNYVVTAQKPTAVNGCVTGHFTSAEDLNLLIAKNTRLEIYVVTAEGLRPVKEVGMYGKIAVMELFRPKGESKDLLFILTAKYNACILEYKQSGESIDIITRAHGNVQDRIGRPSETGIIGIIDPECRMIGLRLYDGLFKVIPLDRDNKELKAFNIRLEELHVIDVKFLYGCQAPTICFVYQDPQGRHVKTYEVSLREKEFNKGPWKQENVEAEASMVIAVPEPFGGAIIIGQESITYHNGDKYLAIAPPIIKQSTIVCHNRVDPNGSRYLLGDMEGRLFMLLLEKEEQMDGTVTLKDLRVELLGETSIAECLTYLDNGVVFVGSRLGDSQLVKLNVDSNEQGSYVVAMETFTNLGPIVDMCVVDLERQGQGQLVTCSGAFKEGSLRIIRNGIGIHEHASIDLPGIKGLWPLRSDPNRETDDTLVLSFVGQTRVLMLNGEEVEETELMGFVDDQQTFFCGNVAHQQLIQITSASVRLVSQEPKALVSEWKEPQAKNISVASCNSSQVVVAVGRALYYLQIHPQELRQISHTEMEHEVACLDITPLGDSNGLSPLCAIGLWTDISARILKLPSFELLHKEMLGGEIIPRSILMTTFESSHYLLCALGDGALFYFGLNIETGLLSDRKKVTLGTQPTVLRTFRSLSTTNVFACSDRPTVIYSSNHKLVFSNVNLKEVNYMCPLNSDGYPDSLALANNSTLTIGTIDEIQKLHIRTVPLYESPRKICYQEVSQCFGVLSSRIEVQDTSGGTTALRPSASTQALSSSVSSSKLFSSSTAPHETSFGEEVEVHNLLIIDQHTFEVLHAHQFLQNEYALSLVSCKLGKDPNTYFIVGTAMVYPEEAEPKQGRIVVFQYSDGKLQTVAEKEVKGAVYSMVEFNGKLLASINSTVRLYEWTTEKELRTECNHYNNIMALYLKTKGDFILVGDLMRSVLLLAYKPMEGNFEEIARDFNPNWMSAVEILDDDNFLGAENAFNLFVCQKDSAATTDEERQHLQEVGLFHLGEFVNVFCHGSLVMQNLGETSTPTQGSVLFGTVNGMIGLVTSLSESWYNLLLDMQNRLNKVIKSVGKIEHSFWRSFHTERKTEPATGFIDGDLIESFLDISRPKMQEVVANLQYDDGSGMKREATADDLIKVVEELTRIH
Procedure, shortened: (§1)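 Cellular target level is measured as luminescence from an 11-residue HiBiT tag fused via a linker to the C-terminus of IKZF1, IKZF2 or SALL4 in stable Flp-In T-REx HEK293 pools. Reporter expression is induced overnight with doxycycline ([…] final), and compounds act for 18-24 h before lytic detection.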

IKZF2 = IKZF2 (Homo sapiens, UniProt Q96SW2+Q9UKS7); test: HEK293 HiBiT in vitro degradation of IKZF2; format: cell-based; set-up: expressed in transfected cells; conditions: for Dmax: HEK293, HEK293 HiBiT; for Dmax / IKZF2 Dmax: maximum degradation at the highest concentration tested; for DC50 / IKZF2 Dmax: HEK293 HiBiT; for DC50: 18-24 hr incubation, normalized to DMSO control, read-out: IKZF2 EC50
IKZF2, sequence (Q9UKS7 1-500 isoform Q9UKS7-2): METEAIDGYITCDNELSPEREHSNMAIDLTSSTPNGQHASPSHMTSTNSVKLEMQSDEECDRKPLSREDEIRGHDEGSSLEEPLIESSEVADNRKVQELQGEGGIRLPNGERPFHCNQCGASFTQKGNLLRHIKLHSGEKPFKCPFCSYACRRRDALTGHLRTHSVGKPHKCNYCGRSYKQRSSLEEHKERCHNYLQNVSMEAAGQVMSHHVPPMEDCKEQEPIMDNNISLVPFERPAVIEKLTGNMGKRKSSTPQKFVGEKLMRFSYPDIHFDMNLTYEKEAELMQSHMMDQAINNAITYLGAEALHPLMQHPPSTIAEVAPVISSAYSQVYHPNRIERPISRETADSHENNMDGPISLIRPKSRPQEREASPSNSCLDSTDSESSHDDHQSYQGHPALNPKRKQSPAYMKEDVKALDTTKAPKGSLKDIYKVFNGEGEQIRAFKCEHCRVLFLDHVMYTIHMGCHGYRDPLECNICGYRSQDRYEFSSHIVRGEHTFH
IKZF2, sequence (Q96SW2 whole entry): as the sequence (Q96SW2 whole entry) above
IKZF2, sequence (Q16531 whole entry partner): as the sequence (Q16531 whole entry partner) above
Procedure, shortened: as §1

| Dmax (IKZF1) [%] | DC50 (IKZF1) [nM] | Dmax (IKZF2) [%] | DC50 (IKZF2) [nM] | IKZF2 Dmax (IKZF2) [%] | IKZF1 Dmax (IKZF1) [%] | Compound |
| --- | --- | --- | --- | --- | --- | --- |
| 46 | 189 | 96 | 24 | – | – | O=C1CCC(N2Cc3cc(C[C@H]4CCCC[C@@H]4NC4CCOc5ccccc54)ccc3C2=O)C(=O)N1 (some centres unmarked) [Example 175] |
| – | > 1000 | 96 | 3 | – | – | CCC(C)N[C@H]1CCCC[C@@H]1Cc1ccc2c(c1)CN(C1CCC(=O)NC1=O)C2=O (some centres unmarked) [Example 176] |
| 42 | 78 | 97 | 4 | – | – | O=C1CCC(N2Cc3cc(C[C@H]4CCCC[C@@H]4NC4Cc5ccccc5C4)ccc3C2=O)C(=O)N1 (some centres unmarked) [Example 177] |
| – | > 1000 | 72 | 168 | – | – | O=C1CCC(N2Cc3cc(C[C@H]4CCC[C@@H]4NC4CCC(F)(F)CC4)ccc3C2=O)C(=O)N1 (some centres unmarked) [Example 178] |
| – | > 10000 | – | 16 | 88 | – | O=C1CCC(N2Cc3cc(C[C@H]4OCCC[C@@H]4NC4CCCCC4)ccc3C2=O)C(=O)N1 (some centres unmarked) [Example 179] |
| – | > 1000 | 85 | 39 | – | – | CC(C)N[C@H]1CCCO[C@@H]1Cc1ccc2c(c1)CN(C1CCC(=O)NC1=O)C2=O (some centres unmarked) [Example 180] |
| 34 | 43 | 94 | 9 | – | – | CC(C)(CCN[C@H]1CCCC[C@@H]1Cc1ccc2c(c1)CN(C1CCC(=O)NC1=O)C2=O)C(F)(F)F (some centres unmarked) [Example 182] |
| – | > 1000 | – | 91 | 81 | – | O=C1CCC(N2Cc3cc(C[C@H]4CCCC[C@@H]4NC4CCCCC4(F)F)ccc3C2=O)C(=O)N1 (some centres unmarked) [Example 183] |
| – | 56 | – | 3 | 97 | 30 | O=C1CCC(N2Cc3cc(C[C@H]4CCCC[C@@H]4NC4CC5CCC(C4)O5)ccc3C2=O)C(=O)N1 (some centres unmarked) [Example 184] |
| – | > 1000 | 98 | 6 | – | – | CC(C)CC(C)N[C@H]1CCCC[C@@H]1Cc1ccc2c(c1)CN(C1CCC(=O)NC1=O)C2=O (some centres unmarked) [Example 185] |
| – | 88 | – | 8 | 98 | 28 | O=C1CCC(N2Cc3c(ccc(C[C@H]4CCCC[C@@H]4NCC4COC4)c3F)C2=O)C(=O)N1 (some centres unmarked) [Example 186] |
| – | 78 | – | 8 | 96 | 37 | O=C1CCC(N2Cc3c(ccc(C[C@H]4CCCC[C@@H]4NCC4CCOCC4)c3F)C2=O)C(=O)N1 (some centres unmarked) [Example 187] |
| – | 44 | – | 2 | 98 | 34 | O=C1CCC(N2Cc3c(ccc(C[C@H]4CCCC[C@@H]4NC4CCOCC4)c3F)C2=O)C(=O)N1 (some centres unmarked) [Example 188] |
| – | 39 | – | 2 | 97 | 46 | O=C1CCC(N2Cc3c(ccc(C[C@H]4CCCC[C@@H]4NC4CCOC4)c3F)C2=O)C(=O)N1 (some centres unmarked) [Example 189] |
| – | 57 | – | 2 | 97 | 44 | O=C1CCC(N2Cc3c(ccc(C[C@H]4CCCC[C@@H]4NC4CCOC4)c3F)C2=O)C(=O)N1 (some centres unmarked) [Example 190] |
| 30 | 63 | 97 | 2 | – | – | O=C1CCC(N2Cc3cc(C[C@H]4CCCC[C@@H]4NC4CC5CCC(C5)C4)ccc3C2=O)C(=O)N1 (some centres unmarked) [Example 191] |
| – | > 10000 | 94 | 6 | – | – | CC1(C)COCCC1N[C@H]1CCCC[C@@H]1Cc1ccc2c(c1)CN(C1CCC(=O)NC1=O)C2=O (some centres unmarked) [Example 192] |
| – | > 1000 | 96 | 7 | – | – | O=C1CCC(N2Cc3cc(C[C@H]4CCCC[C@@H]4NC4CC5CCC4O5)ccc3C2=O)C(=O)N1 (some centres unmarked) [Example 193] |
| – | > 1000 | 92 | 20 | – | – | O=C1CCC(N2Cc3cc(C[C@H]4CCCC[C@@H]4NC4C5CCC4COC5)ccc3C2=O)C(=O)N1 (some centres unmarked) [Example 194] |
| – | > 1000 | 96 | 9 | – | – | O=C1CCC(N2Cc3cc(C[C@H]4CCCC[C@@H]4NC4CCC5COC4O5)ccc3C2=O)C(=O)N1 (some centres unmarked) [Example 195] |
| 22 | 68 | 97 | 5 | – | – | O=C1CCC(N2Cc3cc(C[C@H]4CCCC[C@@H]4NC4CCCOCC4)ccc3C2=O)C(=O)N1 (some centres unmarked) [Example 197] |
| – | > 1000 | 97 | 16 | – | – | O=C1CCC(N2Cc3cc(C[C@H]4CCCC[C@@H]4NC4C[C@H]5COC[C@H]5C4)ccc3C2=O)C(=O)N1 (some centres unmarked) [Example 198] |
| – | > 10000 | 95 | 10 | – | – | O=C1CCC(N2Cc3cc(C[C@H]4CCCC[C@@H]4NC4C5CCCC4CC5)ccc3C2=O)C(=O)N1 (some centres unmarked) [Example 199] |

| Dmax (IKZF1) [%] | DC50 (IKZF1) [nM] | Dmax (IKZF2) [%] | DC50 (IKZF2) [nM] | IKZF2 Dmax (IKZF2) [%] | IKZF1 Dmax (IKZF1) [%] | Compound |
| --- | --- | --- | --- | --- | --- | --- |
| – | > 1000 | 96 | 4 | – | – | CC(N[C@H]1CCCC[C@@H]1Cc1ccc2c(c1)CN(C1CCC(=O)NC1=O)C2=O)C1CCOCC1 (some centres unmarked) [Example 200] |
| – | > 1000 | 96 | 7 | – | – | CC(N[C@H]1CCCC[C@@H]1Cc1ccc2c(c1)CN(C1CCC(=O)NC1=O)C2=O)C1CCCC1 (some centres unmarked) [Example 201] |
| – | > 1000 | – | 8 | 95 | – | CC(N[C@H]1CCCC[C@@H]1Cc1ccc2c(c1)CN(C1CCC(=O)NC1=O)C2=O)C1CCCC1 (some centres unmarked) [Example 202] |
| – | > 1000 | 95 | 13 | – | – | CC(N[C@H]1CCCC[C@@H]1Cc1ccc2c(c1)CN(C1CCC(=O)NC1=O)C2=O)C1CCCCC1 (some centres unmarked) [Example 203] |
| – | > 1000 | 97 | 4 | – | – | CC(CC1CC1)N[C@H]1CCCC[C@@H]1Cc1ccc2c(c1)CN(C1CCC(=O)NC1=O)C2=O (some centres unmarked) [Example 204] |
| – | > 1000 | 98 | 3 | – | – | CC(CC(C)(C)C)N[C@H]1CCCC[C@@H]1Cc1ccc2c(c1)CN(C1CCC(=O)NC1=O)C2=O (some centres unmarked) [Example 205] |
| – | > 1000 | – | 2 | 94 | – | CC(N[C@H]1CCCC[C@@H]1Cc1ccc2c(c1)CN(C1CCC(=O)NC1=O)C2=O)C1(C)CCC1 (some centres unmarked) [Example 207] |
| 68 | 30 | 97 | 1 | – | – | [2H]C1(N[C@H]2CCCC[C@@H]2Cc2ccc3c(c2F)CN(C2CCC(=O)NC2=O)C3=O)CCC2(CC2)CC1 (some centres unmarked) [Example 210] |
| 37 | 54 | 98 | 1 | – | – | [2H]C1(N[C@H]2CCCC[C@@H]2Cc2ccc3c(c2F)CN(C2CCC(=O)NC2=O)C3=O)CCCCC1 (some centres unmarked) [Example 211] |
| 42 | 45 | 98 | 1 | – | – | [2H]C1(N[C@H]2CCCC[C@@H]2Cc2ccc3c(c2F)CN(C2CCC(=O)NC2=O)C3=O)CCCC1 (some centres unmarked) [Example 212] |
| 45 | 41 | 98 | 2 | – | – | [2H]C1(N[C@H]2CCCC[C@@H]2Cc2ccc3c(c2F)CN(C2CCC(=O)NC2=O)C3=O)CC2(CC2)C1 (some centres unmarked) [Example 213] |
| 29 | 174 | 97 | 2 | – | – | [2H]C1(N[C@H]2CCCC[C@@H]2Cc2ccc3c(c2)CN(C2CCC(=O)NC2=O)C3=O)CCCCC1 (some centres unmarked) [Example 215] |
| 34 | 51 | 98 | 2 | – | – | O=C1CCC(N2Cc3cc(C[C@H]4CCCC[C@@H]4NC4CCC(C(F)F)CC4)ccc3C2=O)C(=O)N1 (some centres unmarked) [Example 216] |
| – | > 1000 | 94 | 9 | – | – | O=C1CCC(N2Cc3cc(C[C@H]4CCCC[C@@H]4NC4CCCCC45CC5)ccc3C2=O)C(=O)N1 (some centres unmarked) [Example 228] |
| – | > 1000 | – | 8 | 97 | – | O=C1CCC(N2Cc3cc(C[C@H]4CCCC[C@@H]4NC4CCCCC45CC5)ccc3C2=O)C(=O)N1 (some centres unmarked) [Example 229] |
| – | > 1000 | 98 | 11 | – | – | CC(N[C@H]1CCCC[C@@H]1Cc1ccc2c(c1)CN(C1CCC(=O)NC1=O)C2=O)C1(C)CC1 (some centres unmarked) [Example 234] |
| – | > 1000 | – | 9 | 97 | – | CC(N[C@H]1CCCC[C@@H]1Cc1ccc2c(c1)CN(C1CCC(=O)NC1=O)C2=O)C1(C)CC1 (some centres unmarked) [Example 235] |
| 34 | 122 | 98 | 6 | – | – | C[C@H]1CCCC(N[C@H]2CCCC[C@@H]2Cc2ccc3c(c2)CN(C2CCC(=O)NC2=O)C3=O)C1 (some centres unmarked) [Example 236] |
| – | 208 | – | 2 | 96 | 39 | C[C@H]1CCCC(N[C@H]2CCCC[C@@H]2Cc2ccc3c(c2)CN(C2CCC(=O)NC2=O)C3=O)C1 (some centres unmarked) [Example 237] |
| – | > 1000 | 97 | 3 | – | – | CCC(C)N[C@H]1CCCO[C@@H]1Cc1ccc2c(c1F)CN(C1CCC(=O)NC1=O)C2=O (stereo partly drawn) [Example 304, 3-(5-(((2R,3S)-3-(sec-butylamino)tetrahydro-2H-pyran-2-yl)methyl)-4-fluoro-1-oxoisoindolin-2-yl)piperidine-2,6-dione] |
| – | > 1000 | 95 | 10 | – | – | CC(C)C(C)N[C@H]1CCCO[C@@H]1Cc1ccc2c(c1F)CN(C1CCC(=O)NC1=O)C2=O (some centres unmarked) [Example 306] |
| 40 | 111 | 96 | 1 | – | – | CCC(C)N[C@H]1CCCC[C@@H]1Cc1ccc2c(c1F)CN(C1CCC(=O)NC1=O)C2=O (some centres unmarked) [Example 307] |
| – | > 1000 | 95 | 11 | – | – | CC(N[C@H]1CCCC[C@@H]1Cc1ccc2c(c1)CN(C1CCC(=O)NC1=O)C2=O)C1(C(F)F)CC1 (some centres unmarked) [Example 311] |
